Measurements as given in US20060115426A1, “Methods of detecting breast cancer, brain cancer, and pancreatic cancer” (priority 2004, published 2006).
“Also recorded” adds a separate entry of the source.

Experiments:
C6 gliomas [1] = experiment: Biodistribution (tissue distribution) of 125I-NM404 in glioma-bearing rats; format: in vivo, rat; settings: for Tumor/brain ratio: based on % injected dose/g; for tissue distribution, Thyroid: indicator of in vivo deiodination
Procedure: (§1) Glioma tumor model: All animals were housed and handled in accordance with the University of Wisconsin Research Animal Resources Center guidelines. Rat C6 glioma cells were propagated in DMEM medium (Life Technologies, Gaithersburg, Md.) supplemented with 10% heat-inactivated FBS (BioWhittaker, Walkersville, MD), 100 U/ml penicillin-G, 100 μg/ml streptomycin, and 0.01 M hepes (Life Technologies, Gaithersburg, Md.). Intracranial tumor implantation was performed as described in Badie B, et al. J. Neuroimmunol. 133:39-45, 2002. Briefly, 1×10^6 C6 cells were resuspended in 5 μl of 1.2% methylcellulose and injected into the frontal lobes of anesthetized female Wistar rats (Harlan, Indianapolis, Ind.). Sham-operated animals received intracranial injections of an equal volume of methylcellulose without tumor cells.
Biodistribution studies: Rats bearing C6 gliomas (n=4, 10 day old tumors), and sham-operated rats (n=3) were injected with ^125I-NM404 (15 μCi/200 g rat) and biodistribution studies performed as described in Rampy M A, et al. J. Med. Chem. 38:3156-3162, 1995. Accordingly, animals were euthanized by exsanguination at 24, 48, and 96 hours following injection. A total of 17 tissues including blood, plasma, adrenal glands, bladder wall, bone marrow, brain, eye lens, fat, heart, kidney, liver, lung, muscle, spleen, skin, thyroid, and tumor were excised, rinsed, and dissected free of extraneous tissue. Tissues were minced and duplicate samples weighed and placed in plastic tubes for isotope counting in a gamma counter (Perkin Elmer/Wallac Wizard-1470). Injection site and residual carcass radioactivity were determined in a well counter (Capintec CRC-15R). Time normalized tissue distribution tables were generated by a custom computer program which produces decay-corrected tissue radioactivity concentration data on a percent injected dose/g, […], and percent injected dose/organ±SEM basis.

[2] = test system: CNS-1 brain tumor xenografts; experiment: MicroPET evaluation of 124I-NM404 in rat CNS-1 brain tumor model; format: in vivo; settings: CNS-1 rats
Procedure: NM404 was radiolabeled with ^124I in excellent radiochemical yield (>60% isolated yield, >99% purity) via isotope exchange reaction of stable NM404 with sodium-iodide (Eastern Isotopes, Sterling Va.). Following preparative HPLC purification ^124I-NM404 was solubilized in 2% Tween-20 and filtered (0.22 micron). NM404 (130-200 μCi in 0.1 ml) was injected (i.v., tail vein) into 6 rats with CNS-1 brain tumor xenografts. MicroPET images (Concorde Microsystems-P4, 30 min acquisition) were acquired immediately after and at 6 h, 24 h, and 96 h post injection. Contrast-enhanced MRI images were obtained immediately following the final PET scan and PET/MRI images were manually fused using Amira (V3.1, TGS, Inc). Rats were euthanized and brain tissue subjected to histopathologic analysis.

[3] = test system: spontaneous mammary carcinomas; experiment: Bioscan imaging of 125I-NM404 in Apc Min/+ endogenous mammary adenocarcinoma model; format: in vivo, mouse
Text: Apc^Min/+ Mouse Model: This model is comprised of mice carrying the Min allele of Apc (Apc^Min/+ mice) and the type of lesions that appear in these mice are molecularly and histologically similar to breast cancer in humans. This model offers specific advantages over xenograft models in that female Apc^Min/+ mice are predisposed to developing mammary hyperplasias and carcinomas and intestinal adenomas. On the C57BL6/J genetic background, about 5% of untreated females will develop a mammary tumor by 100 days of age (Moser A R, et al. Proc. Natl. Acad. Sci. USA 90:8977-81, 1993). The incidence and multiplicity of the mammary lesions can be increased by a single dose of ethylnitrosourea (ENU), a direct acting alkylating agent. Treatment with ENU results in 90% of B6 Apc^Min/+ females developing an average of 3 mammary squamous cell carcinomas (SCC), but few hyperplasic lesions within 60 days after treatment.
Genetic background can affect the incidence, latency, and type of mammary lesions that develop. For example, FVBxB6 Apc^Min/+ female mice develop an average of 0.2 mammary tumors per mouse, but 4 hyperplasias per mouse within 120 days of treatment. BALB/xB6 Apc^Min/+ develop an average of 1.8 mammary tumors and 0.6 hyperplasias per mouse (Moser A R, et al. Cancer Research 61:3480-3485, 2001). FVBxB6 and BALBxB6 Apc^Min/+ mice develop both mammary SCC and adenocarcinomas (AC).
Imaging Studies: NM404 (100 μg) was radioiodinated with ^125I via isotope exchange in a melt of privalic acid. Following HPLC purification it was dissolved in an aqueous 2% tween-20 solution prior to tail vein injection (15 μCi/20 g mouse) into 6 female Apc^Min/+ mice. Mice were anesthetized and scanned for up to 30 days post injection on a modified Bioscan AR2000 radio-TLC scanner (1 mm increments at 2 mm acquisition/lane and 1 mm high-resolution collimator) and also in an ImTek microCT scanner (390 steps) for anatomic comparison. […] At sacrifice, mammary glands or excised tumors were imaged ex vivo, lesions were excised, weighed, and radioactivity quantitated. Lesion samples were submitted for histological classification. If necessary a long-acting CT blood pool contrast agent (BP20), as described in Weichert J P, et al. Radiology 216:865-871, 2000 and suitable for long microCT acquisitions times, was injected intravenously prior to CT scanning in order to assist in blood vessel visualization (FIG. 3).

C6 gliomas [4] = experiment: Bioscan imaging of excised brains of C6 glioma-bearing and sham-operated rats; format: in vivo, rat
Procedure: as §1
Imaging studies: Ten days after implantation rats were screened for the presence of intracranial tumors with MRI as described in Badie B, et al. Clin. Cancer Res. 9:872-877, 2003. […]
NM404 (100 μg) was radioiodinated with ^125I via isotope exchange in a melt of pivalic acid (Weichert J P, et al. Int J Appl Rad Isotopes 37:907-913,1986). […] Co-registered Bioscan images and digital photographs were fused (Corel Photo-Paint) in order to accurately determine the location of radioactivity. […]

[5] = test system: pancreatic adenocarcinomas; experiment: Bioscan imaging of 125I-NM404 in c-myc spontaneous pancreatic adenocarcinoma model; format: in vivo, mouse; settings: c-myc transgenic mice, adenocarcinomas 5-12 mm in diameter
Text: Mouse Pancreatic Adenocarcinoma Models: Two murine strains that are transgenic for either c-myc or k-ras, well-known oncogenes, have been developed at the University of Wisconsin (Sandgren E P, et al. Proc. Natl. Acad. Sci. USA 88:93-97, 1991 and Grippo P J, et al. Cancer Research 63:2016-2019, 2003). Expression of c-myc is targeted to pancreatic acinar cells because it is linked to an elastase promoter, which is only expressed in the pancreas. These ela-1-myc transgenic mice develop acinar and ductal neoplasia, which results in death between 2 and 7 months of age. By one month of age, the pancreas appears thickened and firm. Thus mice between the ages of 1-3 months serve as excellent models for the study of pancreatic cancer. Most human pancreatic neoplasms have a ductal morphology, and Dr. Sandgren's transgene targeting strategies are aimed at developing tumors that are specific for pancreatic ductal epithelium.
Imaging Studies: In order to determine if NM404 localizes in mouse pancreatic tumors, six c-myc transgenic mice were scanned on a Bioscan AR-2000 radioTLC scanner (modified by inventors for mouse imaging) from 2-21 days after tail vein injection of ^[…] (15 μCi/20 g body weight). […] At sacrifice, tissues were excised, weighed, and radioactivity quantitated in a gamma counter.

viable tumor cells = experiment: Autoradiography experiments in other tumor models; format: in vivo; settings: versus normal or necrotic tissues
[6] = Apc Min/+ mice, Bioscan imaging

## C[N+](C)(C)CCOP(=O)([O-])OCCCCCCCCCCCCCCCCCCc1ccc([125I])cc1 [^125I-NM404]
C6 gliomas [1]; 24 h, N = 1
  tissue distribution, Blood: 1.83 % injected dose/g tissue
  tissue distribution, Brain: 0.07 % injected dose/g tissue
  tissue distribution, Glioma: 0.74 % injected dose/g tissue
  tissue distribution, Kidney: 0.91 % injected dose/g tissue
  tissue distribution, Liver: 0.77 % injected dose/g tissue
  tissue distribution, Spleen: 0.80 % injected dose/g tissue
C6 gliomas [1]; 24 h
  Tumor/brain ratio: 10.6
C6 gliomas [1]; 48 h, N = 1
  tissue distribution, Blood: 1.16 % injected dose/g tissue
  tissue distribution, Brain: 0.05 % injected dose/g tissue
  tissue distribution, Glioma: 0.60 % injected dose/g tissue
  tissue distribution, Kidney: 0.44 % injected dose/g tissue
  tissue distribution, Liver: 0.30 % injected dose/g tissue
  tissue distribution, Spleen: 0.33 % injected dose/g tissue
  tissue distribution, Thyroid: 2.34 % injected dose/g tissue
C6 gliomas [1]; 48 h
  Tumor/brain ratio: 12.0
C6 gliomas [1]; 96 h, N = 2, ± SEM
  tissue distribution, Blood: 0.82 ± 0.01 % injected dose/g tissue
  tissue distribution, Brain: 0.09 ± 0.02 % injected dose/g tissue
  tissue distribution, Glioma: 0.70 ± 0.04 % injected dose/g tissue
  tissue distribution, Kidney: 0.45 ± 0.05 % injected dose/g tissue
  tissue distribution, Liver: 0.39 ± 0.01 % injected dose/g tissue
  tissue distribution, Spleen: 0.33 ± 0.03 % injected dose/g tissue
  tissue distribution, Thyroid: 9.06 ± 3.84 % injected dose/g tissue
C6 gliomas [1]; 96 h
  Tumor/brain ratio: 7.8

## C[N+](C)(C)CCOP(=O)([O-])OCCCCCCCCCCCCCCCCCCc1ccc([124I])cc1 [^124 I-NM404]
[2]; 6 hours following injection
  tumor uptake (microPET): respectable tumor uptake
[2]; any time point
  concomitant normal brain tissue activity (microPET): Little to no
[2]; at either 24 or 96 hours
  tumor conspicuity (microPET): significant
[2]; within 30 minutes of i.v. injection
  tumor uptake (microPET): no tumor uptake

## C[N+](C)(C)CCOP(=O)([O-])OCCCCCCCCCCCCCCCCCCc1ccc(I)cc1 [NM404, 18-(p-iodophenyl)-octadecylphosphocholine]
[3]; Apc Min/+ mice after i.v. 125I-NM404
  HPLC analysis of radioactive urine and feces: presence of metabolites and no parent NM404
[3]; [6]
  localization in focal alveolar (mammary) hyperplasias: no corresponding focal activity; also recorded: did not localize
  localization in intestinal adenomatous polyps: no uptake; also recorded: did not localize
[3]; Apc Min/+ mice, i.v. 125I-NM404 15 μCi/20 g, carcinomas 2-15 mm in diameter
  uptake in spontaneous mammary carcinomas: > 20 % dose/g
[3]; Apc Min/+ mice, mammary carcinomas, 21 days = predetermined study endpoint
  tumor retention: > 21 days
C6 gliomas [4]; C6 glioma-bearing rats, 24-96 h after i.v. 125I-NM404 15 μCi/200 g
  tracer uptake in C6 gliomas on Bioscan images: intense localization; also recorded: concentrated intensely
C6 gliomas [4]; sham operated control rats
  radioactivity in normal brain tissue: minimal
C6 gliomas [1]; 24 h
  Tumor/brain ratio: 10.6
C6 gliomas [1]; 48 h, N = 1
  tissue distribution, Thyroid: 2.3 % injected dose/g tissue
C6 gliomas [1]; 48 h
  Tumor/brain ratio: 12.0
C6 gliomas [1]; 96 h, N = 2, ± SEM
  tissue distribution, Thyroid: 9.0 % injected dose/g tissue
C6 gliomas [1]; 96 h
  Tumor/brain ratio: 7.8
[5]
  retention in pancreatic adenocarcinomas: > 21 days
[5]; i.v. 15 μCi/20 g
  uptake in pancreatic adenocarcinomas: striking uptake
Viable tumor cells
  cells/tissues capable of accumulating NM404 (autoradiography): only viable tumor cells
